The values below come from PMC5753150 (Beilstein Journal of Organic Chemistry, 2017).

The target in series [1] is pepsin (EC 3.4.23.1) (Sus scrofa, UniProt P00791). The experiment in a line: in vitro. The following applies: pepsin (porcine stomach mucosa), 10 mM acetate buffer pH 4.0 with DMSO, 30 °C, 24 h, FL-RP-HPLC peak integration (Abz, λex 320/λem 420 nm), average of three independent measurements. Here is the method: (§1) The course of proteolytic digestion was characterized by an analytical HPLC-assay with fluorescence detection. For quantification of substrate degradation, integration of the corresponding HPLC peak was conducted. Cleavage products were identified by ESI–ToF mass spectrometry (see Supporting Information File 1, Tables S4–S7).
(§2) All peptides employed in the degradation studies were used as the TFA salts obtained after lyophilization. Stock solutions of α-chymotrypsin (from bovine pancreas, EC 3.4.21.1, ≥40.0 units/mg of protein, Sigma Aldrich, St. Louis, MO, USA), and pepsin (from porcine stomach mucosa, EC 3.4.23.1, ≥250 units/mg of protein, Sigma Aldrich, St. Louis, MO, USA) were prepared at concentrations of 1 mg/mL in phosphate buffer (10 mM, pH 7.4), or in acetate buffer (10 mM, pH 4.0), respectively. For proteinase K (from tritirachium album, EC 3.4.21.64, ≥30 units/mg of protein, Sigma Aldrich, St. Louis, MO, USA) and elastase (from porcine pancreas, EC 3.4.21.36, 6.2 units/mg of protein, Sigma Aldrich, St. Louis, MO, USA) stock solutions were prepared also at concentrations of 1 mg/mL in tris/HCl (50 mM) + CaCl2 (10 mM) buffer (pH 7.5), or in tris/HCl buffer (100 mM, pH 8.4), respectively. Peptides (0.002 mmol) were prepared as stocks in DMSO (100 µL) and incubated with the respective enzyme at 30 °C (for α-chymotrypsin and pepsin) or 37 °C (for proteinase K and elastase) with shaking at 300 rpm in a thermomixer over a period of 24 h. The reaction mixture consisted of DMSO (15 µL), corresponding buffer (25 µL), peptide solution (5 µL) and the corresponding enzyme solution (5 µL). […] Aliquots of 5 µL were taken at fixed time points (0, 15, 30, 60, 90, 120 min as well as 3 h and 24 h) and either quenched with ACN containing 0.1% (v/v) TFA (95 µL), in the case of α-chymotrypsin, proteinase K and elastase, or 2% aqueous ammonia (95 µL), in the case of pepsin. All samples were subjected to analytical HPLC on a LaChrom-ELITE-HPLC-System equipped with a fluorescence detector (VWR International Hitachi, Darmstadt, Germany). A monolithic reversed-phase C8 Chromolith® Performance HPLC column (100 × 4.6 mm, Merck KGaA, Darmstadt, Germany) was used to resolve and quantify the products of digestion. The used system and gradients are described in detail in Supporting Information File 1. Detection based on the Abz label was carried out using a fluorescence detector with λex = 320 nm and λem = 420 nm. In all cases, the peaks corresponding to the starting materials (full-length peptides) or the N-terminal fragments (products) were integrated and used to determine the velocity of the reaction (see Supporting Information File 1). […] Each fragment cleaved from the full-length peptide was identified by ESI–ToF mass analysis on an Agilent 6220 ESI–ToF–MS spectrometer (Agilent Technologies, Santa Clara, CA, USA, see Supporting Information File 1). All experiments were performed in triplicate.
(§3) 2130) with solvent degasser, an autosampler (L-2200) with a 100 µL sample loop, a diode array flow detector (L-2455), a fluorescence detector (L-2485) and a high pressure gradient mixer. As eluents water and ACN, both containing 0.1% (v/v) TFA were used, and a flow rate of 3 mL/min was applied. The used linear gradients are […]
(§4) For the non-fluorinated peptides method A was used to follow the digestion process, and for the fluorinated peptides method B was applied. For […]
(§5) The obtained data were analyzed with EZChrom Elite software
(§6) (version 3.3.2, Agilent Technologies, Santa Clara, CA, USA).

Series [2] has as its target elastase (EC 3.4.21.36) (Sus scrofa, UniProt P00772). The following applies: elastase, 100 mM Tris/HCl buffer pH 8.4, 37 °C; for Proteolytic stability compared to control peptide FA after 24 h: FL-RP-HPLC. How it is done: as §1, §2, §3, §4, §5, §6
The target of series [3] is T1, α-chymotrypsin (EC 3.4.21.1) (Bos taurus, UniProt P00766).
T1 construct: purchased Sigma Aldrich; host or cells: bovine pancreas
The experiment in a line: Protease digestion assay with α-chymotrypsin (FL-RP-HPLC). Type of series: in vitro ADME, bovine. The following applies: α-chymotrypsin (bovine pancreas), 10 mM phosphate buffer pH 7.4 with DMSO, 30 °C, 24 h, FL-RP-HPLC peak integration (Abz, λex 320/λem 420 nm), average of three independent measurements. Here is the method:
The FA peptide was used as a reference. […] All experiments were performed in triplicate.
The used linear gradients are
chromatograms where an insufficient baseline separation was observed,
(proteinase K)]. The obtained data were analyzed with EZChrom Elite software
Method Time [min] Water + 0.1% (v/v) TFA [%] ACN + 0.1% (v/v) TFA [%]

Series [4] has as its system pepsin (EC 3.4.23.1). The experiment in a line: pepsin in 10 mM acetate buffer, pH 4.0. The conditions noted are these: porcine stomach mucosa, 30 °C, up to 24 h.
The test system of series [5] is elastase (EC 3.4.21.36). Briefly: elastase in 100 mM Tris/HCl buffer, pH 8.4. The following applies: porcine pancreas, 37 °C, up to 24 h.
For series [6], the system named is α-chymotrypsin (EC 3.4.21.1). Briefly: α-chymotrypsin in 10 mM phosphate buffer, pH 7.4. The following applies: bovine pancreas, 30 °C, up to 24 h.
Series [7] concerns proteinase K (EC 3.4.21.64). The experiment in a line: proteinase K in 50 mM Tris/HCl buffer, containing 10 mM CaCl2 pH 7.5. The following applies: tritirachium album, 37 °C, up to 24 h.

“Also recorded” adds a separate entry of the source. *1 amine or outer side, *2 acyl side, *3 side chain or, on linkers, in order; H or OH if unused. Where a SMILES comes first, the peptide text is derived from it. [ ]: non-standard residue; d: D form. X1 = C[C@@H](CC(F)(F)F)[C@H](N[*:1])C(=O)[*:2]; 2Abz = Nc1ccccc1C(=O)O

Chain of elastase (EC 3.4.21.36) (Sus scrofa, UniProt P00772) (P00772 27-266): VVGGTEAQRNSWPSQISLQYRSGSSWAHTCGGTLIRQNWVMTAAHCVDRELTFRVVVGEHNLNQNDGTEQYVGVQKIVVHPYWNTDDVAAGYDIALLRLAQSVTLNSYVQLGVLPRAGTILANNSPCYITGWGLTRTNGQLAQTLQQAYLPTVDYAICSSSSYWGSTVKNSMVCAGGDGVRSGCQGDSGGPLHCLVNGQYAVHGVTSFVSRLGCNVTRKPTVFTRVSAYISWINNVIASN
Chain of pepsin (EC 3.4.23.1) (Sus scrofa, UniProt P00791) (P00791 60-385): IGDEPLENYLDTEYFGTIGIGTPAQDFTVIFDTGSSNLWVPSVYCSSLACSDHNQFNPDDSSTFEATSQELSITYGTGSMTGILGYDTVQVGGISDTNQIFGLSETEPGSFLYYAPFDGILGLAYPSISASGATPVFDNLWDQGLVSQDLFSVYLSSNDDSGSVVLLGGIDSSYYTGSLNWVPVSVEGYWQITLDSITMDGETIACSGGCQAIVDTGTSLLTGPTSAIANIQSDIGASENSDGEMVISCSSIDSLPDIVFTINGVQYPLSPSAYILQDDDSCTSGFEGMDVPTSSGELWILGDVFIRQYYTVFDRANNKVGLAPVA

Regarding `C[C@H](NC(=O)[C@H](C)NC(=O)[C@H](C)NC(=O)[C@H](Cc1ccccc1)NC(=O)[C@H](C)NC(=O)[C@H](C)NC(=O)[C@H](CCCCN)NC(=O)c1ccccc1N)C(=O)N[C@@H](C)C(=O)N[C@@H](CCCCN)C(=O)O` [FA] (H-[2Abz]KAAFAAAAK-OH), in series [1], the “Percentage of substrate remaining after incubation for 24 h” value is listed as “almost completely degraded”.

Regarding `CC[C@H](C)[C@H](NC(=O)[C@H](Cc1ccccc1)NC(=O)[C@H](C)NC(=O)[C@H](C)NC(=O)[C@H](CCCCN)NC(=O)c1ccccc1N)C(=O)N[C@@H](C)C(=O)N[C@@H](C)C(=O)N[C@@H](C)C(=O)N[C@@H](CCCCN)C(=O)O` [P1’-IleFA] (H-[2Abz]KAAFIAAAK-OH), the “Proteolytic stability compared to control peptide FA after 24 h” value in series [2] is “more stable than the control peptide FA”.

For the molecule `C[C@H](NC(=O)[C@H](C)NC(=O)[C@@H](NC(=O)[C@H](Cc1ccccc1)NC(=O)[C@H](C)NC(=O)[C@H](C)NC(=O)[C@H](CCCCN)NC(=O)c1ccccc1N)[C@@H](C)CC(F)(F)F)C(=O)N[C@@H](C)C(=O)N[C@@H](CCCCN)C(=O)O` [P1’-TfIleFA] (H-[2Abz]KAAF[X1]AAAK-OH), the “Proteolytic stability compared to control peptide FA after 24 h” value in series [2] is given as “comparably stable”. For the same molecule, the “Gain in stability upon fluorination compared to the non-fluorinated (Leu or Ile) analogue, 24 h” value in series [2] (after 24 h) is recorded as “accelerates enzymatic degradation”.

Regarding `CC(C)C[C@H](NC(=O)[C@H](C)NC(=O)[C@H](CCCCN)NC(=O)c1ccccc1N)C(=O)N[C@@H](Cc1ccccc1)C(=O)N[C@@H](C)C(=O)N[C@@H](C)C(=O)N[C@@H](C)C(=O)N[C@@H](C)C(=O)N[C@@H](CCCCN)C(=O)O` [P2-LeuFA] (H-[2Abz]KALFAAAAK-OH), in series [3], the “Percentage of substrate remaining after incubation for 24 h” value is listed as “complete proteolysis”.

Consider Abz-KAAFAAAAK, for which the cleaved bond entry is on record as “F-A” in series [4]; “A-A” in series [5]; “F-A, major” in series [6]; “A-A” in series [7]. Also, in series [5], the not cleaved entry is given as “no fragments with Phe in the P1 position observed”.

As to Abz-KAAFAHfLeuAAK, the cleaved bond entry was “A-HfLeu” in series [4]; “K-A and A-A and A-F and A-HfLeu” in series [5]; “F-A, major” in series [6]; “A-HfLeu; also recorded: HfLeu-A” in series [7]. Further, the values for the not cleaved result in series [4] and in series [5] were “not hydrolyzed at the designed cleavage site” and “no fragments with Phe in the P1 position observed”, respectively.

For Abz-KAAFAIleAAK, the cleaved bond entry is “F-A” in series [4]; “A-F and Ile-A and A-A and A-K” in series [5]; “F-A, major” in series [6]; “A-F and A-Ile” in series [7]. In series [5], the not cleaved entry is “no fragments with Phe in the P1 position observed”.

Take Abz-KAAFATfIleAAK: the cleaved bond result in series [4] is “F-A and A-TfIle and A-F”; in series [5], “A-F and TfIle-A”; in series [6], “F-A, major”; in series [7] it was “A-F”. Moreover, the not cleaved entry in series [5] is on record as “no fragments with Phe in the P1 position observed”.

In the case of Abz-KAAFHfLeuAAAK, the cleaved bond entry in series [4] is “F-HfLeu; also recorded: HfLeu-Ala”; in series [5], “K-A and A-A”; in series [6] it was “F-HfLeu, major; also recorded: HfLeu-A”; in series [7] it was “A-F”. In series [5], the not cleaved entry is “no fragments with Phe in the P1 position observed”.

For Abz-KAAFIleAAAK, the cleaved bond result was “A-F and A-A” in series [5]; “F-Ile, major” in series [6]; “A-F and A-A” in series [7]. Further, the not cleaved entry in series [5] is given as “no fragments with Phe in the P1 position observed”.

On to Abz-KAAFLeuAAAK, for which the cleaved bond result in series [4] is “F-Leu; also recorded: Leu-Ala”; in series [5] it was “K-A and A-A and A-F and A-K”; in series [6] it was “F-Leu, major; also recorded: Leu-A”; in series [7], “A-F and A-A”. For the same molecule, the not cleaved result in series [5] was “no fragments with Phe in the P1 position observed”.

In the case of Abz-KAAFTfIleAAAK, the cleaved bond result in series [4] was “F-TfIle”; in series [5] it was “A-A”; in series [6] it was “F-TfIle, major”; in series [7], “A-F and A-A”. For the same molecule, in series [5], the not cleaved entry is recorded as “no fragments with Phe in the P1 position observed”.

On to Abz-KAHfLeuFAAAAK, for which the cleaved bond entry in series [4] was “F-A and HfLeu-F”; in series [5], “HfLeu-F and A-A”; in series [7], “HfLeu-F and A-A”. Besides, the not cleaved result in series [5] is given as “no fragments with Phe in the P1 position observed”; in series [6], “not digested at all”.

Turning to Abz-KAIleFAAAAK, the cleaved bond result was “F-A” in series [4]; “Ile-F and A-A and A-K” in series [5]; “F-A, major” in series [6]; “F-A” in series [7]. The not cleaved entry in series [5] was “no fragments with Phe in the P1 position observed”.

As for Abz-KALeuFAAAAK, the cleaved bond result in series [4] was “F-A”; in series [5], “A-Leu and A-A and A-K”; in series [6] it was “F-A, major”; in series [7] it was “Leu-F and A-A”.

On to Abz-KATfIleFAAAAK, for which the not cleaved in series [4] was 100% after 24 h; in series [5] it was “no fragments with Phe in the P1 position observed”; in series [6] it was “not digested at all”. The cleaved bond entry in series [5] was “TfIle-F and A-A”; in series [7], “F-A and A-A”.
